Test results as given in patent US9182350B2, “Naphthalene-based two-photon fluorescent probes, preparation method and use thereof” (DALIAN UNIVERSITY OF TECHNOLOGY, priority 2012, dated 2015).
≈ marks a conversion by molar mass, not a printed value. Blank lines part the entries; values can stand above or below the molecule they belong to.

Tests used:
[1] = physchem; settings: water
Source text: (§8) The absorbance of different concentrations of compound A2 solution at maximum absorption wavelength was detected. The results are representative value from replicate experiments (n=3).
(§9) The absorbance of different concentrations of compound A4 solution at maximum absorption wavelength was detected. The results are representative value from replicate experiments (n=3).
(§10) The experiment instrument is Agilent 8453 U-V spectrophotometer.

[2] = tested on: tumor tissue sections of mice' lungs; assay: Two-photon fluorescence labeling of tumor tissue sections; settings: sections soaked in probe PBS solution (10 μM), 30 min
Method: (§1) FIG. 8 is the two-photon fluorescent imaging of fluorescent probe compound A4 for the tumor tissues and non-tumor tissues of mice' lungs in example 11. The sections of tumor tissues and non-tumor tissues of mice' lungs were incubated with 4 μL of A4 (10.0 μM). The representative areas were selected and imaged with oil-immersion objective lens (100×). The resulting images are representative of replicate experiments (n=3). FIG. 8 (a1) and (a2) are the confocal images of tumor tissue sections of mice' lungs after adding probe A4, FIG. 8 (b1) and (b2) are the confocal images of non-tumor tissue sections of mice' lungs after adding probe A4. The images of FIG. 8 (a1) and (b1) were recorded with the emission in the range of 500-550 nm. The images of FIG. 8 (a2) and (b2) were recorded with the emission in the range of 570-650 nm.
(§2) FIG. 11 is two-photon fluorescent imaging of fluorescent probe compound A5 for the tumor tissues and non-tumor tissues of mice' lungs in example 15. The sections of tumor tissues and non-tumor tissues of mice' lungs were incubated with 4 μL of […] (10.0 μM). The representative areas were selected and imaged with oil-immersion objective lens (100×). […] The images of FIG. 11 (a1) and (b1) were recorded with the emission in the range of 500-550 nm. The images of FIG. 11 (a2) and (b2) were recorded with the emission in the range of 570-650 nm.
(§3) Tumor tissue sections and non-tumor tissues sections of mice' lungs were soaked in the compound A2 PBS solution (10 μM), respectively. After 30 min, take out the section, mounting, safekeeping, the fluorescence images were obtained by two-photon spectral confocal multiphoton microscope. […] The images were recorded with the emission in the range of 500-550 nm.
as §3, with “A4” for “A2”, “nm. […]” for “nm.”

[3] = tested on: non-tumor tissue sections of mice' lungs; assay: Two-photon fluorescence labeling of non-tumor tissue sections; settings: sections soaked in probe PBS solution (10 μM), 30 min
Method: as §1, §2, §3
as §3, with “A4” for “A2”, “nm. […]” for “nm.”

[4] = tested on: HeLa cells; assay: Two-photon fluorescence labeling of cancer cells; format: cell-based; settings: 4 μL probe-DMSO solution (4 μM), 60 min, 5% CO2, 37° C., PBS wash
Method: (§4) FIG. 2 is the two-photon fluorescent imaging of fluorescent probe compound A1 in the tumor cells and non-tumor cells in example 2. Hela cells and HEK293 cells were incubated with 4 μL of A1-DMSO (4.0 μM) for 60 min in 5% CO2 at 37° C. The representative areas were selected and imaged with oil-immersion objective lens (100×). The resulting images are representative of replicate experiments (n=3). The images were recorded with the emission in the range of 500-550 nm. FIG. 2 (a) is confocal image of Hela cell, FIG. 2 (b) is confocal image of HEK293 cell.
(§5) FIG. 10 is two-photon fluorescent imaging of fluorescent probe compound A2 in the tumor cells and non-tumor cells in example 14. […] The images of FIG. 10 (a1) and (b1) were recorded with the emission in the range of 500-550 nm. The images of FIG. 10 (a2) and (b2) were recorded with the emission in the range of 570-650 nm.
(§6) Compound A1 was used, which was synthesized in the example 1. […] The fluorescence imaging was obtained with a two-photon spectral confocal multiphoton microscope. […] The images were recorded with the emission in the range of 500-550 nm.
(§7) Compound A5 was used, which was synthesized in the example 13. […] The fluorescence imaging was obtained with a two-photon spectral confocal multiphoton microscope. […] The images of FIG. 10(a1) and FIG. 10(b1) were recorded with the emission in the range of 500-550 nm. […]

[5] = tested on: HEK 293 cells; assay: Two-photon fluorescence labeling of non-cancer cells; format: cell-based; settings: 4 μL probe-DMSO solution (4 μM), 60 min, 5% CO2, 37° C., PBS wash
Method: as §4, §5, §6, §7

[6] = Water solubility experiment (absorbance vs concentration at maximum absorption wavelength)
Source text: as §8, §9, §10

SMILES: COc1ccc2c(c1)c(CC(=O)NCCCCCCNc1ccc3c4c(cccc14)-c1nc4ccccc4nc1-3)c(C)n2C(=O)c1ccc(Cl)cc1 [Compound A4]
- solubility [1]: 24 µM (≈ 17 µg/mL)
- fluorescence signal in tumor tissue sections of mice' lungs (two-photon confocal imaging) [2]: strong fluorescence signals
- fluorescence signal in non-tumor tissue sections of mice' lungs (two-photon confocal imaging) [3]: no any fluorescence signals

SMILES: COc1ccc2c(c1)c(CC(=O)NCCCCCCNc1ccc3c4c(cccc14)C(=O)N(C)C3=O)c(C)n2C(=O)c1ccc(Cl)cc1 [Compound A1]
- fluorescence signal in HeLa cells (two-photon confocal imaging) [4]: strong fluorescence signals
- fluorescence signal in HEK 293 cells (two-photon confocal imaging) [5]: no any fluorescence signal

SMILES: COc1ccc2c(c1)c(CC(=O)NCCCCCCNc1ccc3c4c(cccc14)-c1nc4ccc([N+](=O)[O-])cc4nc1-3)c(C)n2C(=O)c1ccc(Cl)cc1 [Compound A5]
- fluorescence signal in HeLa cells (two-photon confocal imaging) [4]: strong fluorescence signals
- fluorescence signal in HEK 293 cells (two-photon confocal imaging) [5]: no any fluorescence signal
- fluorescence signal in tumor tissue sections of mice' lungs (two-photon confocal imaging) [2]: strong fluorescence signals
- fluorescence signal in non-tumor tissue sections of mice' lungs (two-photon confocal imaging) [3]: no any fluorescence signals

- solubility [6]: 5 µM (≈ 3.62 µg/mL)
SMILES: COc1ccc2c(c1)c(CC(=O)NCCCCCCNc1ccc3c4c1cccc4c(=O)n1c4ccccc4nc31)c(C)n2C(=O)c1ccc(Cl)cc1 [Compound A2]
- fluorescence signal in tumor tissue sections of mice' lungs (two-photon confocal imaging) [2]: strong fluorescence signals
- fluorescence signal in non-tumor tissue sections of mice' lungs (two-photon confocal imaging) [3]: no any fluorescence signals
